Results reported in US20230094952A1, “Method for Culturing Hematopoietic Stem Cells” (Sumitomo Pharma Co., Ltd., priority 2019, published 2023).

Key:
[1] = test system: human CD34-positive cells transplanted into NOG mouse; experiment: In vivo engraftment test with human cells in irradiated NOG mouse (peripheral blood donor chimerism); settings: cells cultured with compound 0.003 μM, 10000 cells transplanted
Protocol: (§1) Each of artemether and the compound of Example 1-23 was prepared with the cell culture medium at a final concentration of 0.003 μM or 0.01 μM, and added to the above human cells seeded after classification (166 cells were seeded per well) to a final volume of 200 μL/well to act thereon. Thereafter, for each condition, 10000 cells in total of a CD34-positive fraction were cultured in a CO2 incubator under conditions of 37° C. and 5% CO2 for 1 week, and the cell count was determined. Among the cells after culture, 10000 cells, a number equal to the number of cells before culture, were transplanted into an immunocompromised NOG mouse exposed to a lethal dose of radiation. As a comparative sample, 10000 fresh cord blood-derived CD34-positive cells (uncultured) were transplanted. For peripheral blood donor chimerism at each specified time after transplantation, the human CD45-positive cell count and the mouse CD45-positive cell count were determined by using a human-specific CD45 antibody and a mouse-specific CD45 antibody, and the peripheral blood donor chimerism was represented as the proportion of human CD45-positive cells to the total of human CD45-positive cells and mouse CD45-positive cells (chimerism rate).

[2] = test system: human CD34-positive fraction; experiment: Ex vivo culture of 10000 human CD34-positive cells before transplantation (cell count); assay type: cell-based; settings: compound 0.003 μM; 10000 CD34-positive cells cultured 1 week
Protocol: as §1

[3] = test system: human hematopoietic stem cells (CD34-positive cells); experiment: Confirmation test with human cells: 1-week culture of cord blood Lineage-negative CD34-positive cells, flow cytometry; assay type: cell-based
From the text: Collection of Human Cord Blood-Derived Mononuclear Cells Human cord blood-derived mononuclear cells were subjected to removal of erythrocytes and concentration treatment by using EasySep RBC Depletion Reagent (manufactured by […] Technologies Inc.) to obtain a cell population including hematopoietic stem cells.
First, a CD34-positive cell fraction was partially purified from the thus-obtained cell population including hematopoietic stem cells by using an EASYSep Human Cord Blood CD34 Positive Selection Kit II (manufactured by […] Technologies Inc.). The concentrated CD34-positive cells in a cell population enriched with hematopoietic stem cells and progenitor cells were stained with antibodies for the following cell surface markers.
Staining with the antibodies was performed at 4° C., and the cells were incubated for 30 minutes. For staining with the CD34 antibody, the cells were incubated for 90 minutes. Dead cell staining was performed with SYTOX Blue Dead Cell Stain (manufactured by Life Technologies) in accordance with a method recommended by the manufacturer.
Flow cytometry analysis and cell classification (cell sorting) were performed with a FACS Aria III cell sorter (manufactured by BD Biosciences), wherein fractions being Lineage-negative and CD34-positive were regarded as hematopoietic stem cells, and analysis was performed with the software FlowJo (manufactured by Tree Star, Inc.).
The cells after classification were seeded in a 96-well plate. […]
Each of artemether and the compounds of Example 1-23, Example 1-16, and Example 1-7 was prepared with the cell culture medium at nine final concentrations (0.001 μM, 0.003 μM, 0.01 μM, 0.03 μM, 0.1 μM, 0.3 μM, 1 μM, 3 μM, 10 μM), and added to the above human cells seeded after classification to a final volume of 200 μL/well to act thereon. UM171 (35 nM) was added to some of them to examine the presence or absence of synergistic effect. Thereafter, the cells were cultured in a CO2 incubator under conditions of 37° C. and 5% CO2 for 1 week. Viable cell counts and CD34-positive cell counts were analyzed.
After culture, the cells were stained with the antibodies for the surface markers CD34, CD11b, CD14, CD19, CD20, CD235ab, CD3, CD4, CD56, and CD8a, and the visible cell count and the ratio and post-growth cell count of a CD34 fraction (CD34^+, Lin^−) were measured by using a FACS Aria III cell sorter, and analyzed by using FlowJo (BD Biosciences). The CD34 fraction is a fraction including hematopoietic stem cells and multipotent progenitor cells as main components.

[4] = test system: human hematopoietic stem cells (CD34-positive cells); experiment: Functional test with human cells: colony assay (CFU-GEMM) after culture; assay type: cell-based
Protocol: Each of artemether and the compounds of Example 1-23, Example 1-16, and Example 1-7 was prepared with the cell culture medium at nine final concentrations (0.001 μM, 0.003 μM, 0.01 μM, 0.03 μM, 0.1 μM, 0.3 μM, 1 μM, 3 μM, 10 μM), and added to the above human cells seeded after classification to a final volume of 200 μL/well to act thereon. UM171 (35 nM) was added to some of them to examine the presence or absence of synergistic effect. Thereafter, the cells were cultured in a CO2 incubator under conditions of 37° C. and 5% CO2 for 1 week, collected, and then seeded in a 96-well plate to place one CD34-positive cell in each well by using a FACS Aria III cell sorter, and cultured with a MethoCult H4435 ([…] Technologies Inc.) for 2 weeks. After culture, each well was photographed with an optical microscope (manufactured by KEYENCE CORPORATION), and the colony count was determined by visual observation and the form of each colony was determined by visual observation. Colony Formation Unit-Granulocytes, Erythroids, Macrophages, Megakaryocytes (CFU-GEMM), which are derived from myeloid progenitor cells, the erythroid burst colony-forming cells Burst Forming Unit-Erythroids (BFU-E), the granulocyte/macrophage colony-forming cells Colony Formation Unit-Granulocytes, Macrophages (CFU-GM) were determined on the basis of the forms of colonies, and the numbers were counted.

[5] = UM171 (35 nM) and artemether 0.001 μM
[6] = UM171 (35 nM) and artemether 0.003 μM
[7] = UM171 (35 nM) and artemether 0.01 μM
[8] = UM171 (35 nM) and artemether 0.03 μM
[9] = UM171 (35 nM) and artemether 0.1 μM
[10] = UM171 (35 nM) and artemether 0.3 μM
[11] = UM171 (35 nM) and artemether 1 μM
[12] = compound 0.001 μM, 180 cells before culture, no UM171
[13] = compound 0.003 μM, 180 cells before culture, no UM171
[14] = compound 0.01 μM, 180 cells before culture, no UM171
[15] = compound 0.03 μM, 180 cells before culture, no UM171
[16] = compound 0.1 μM, 180 cells before culture, no UM171
[17] = compound 0.3 μM, 180 cells before culture, no UM171
[18] = compound 1 μM, 180 cells before culture, no UM171
[19] = compound 3 μM, 180 cells before culture, no UM171
[20] = compound 10 μM, 180 cells before culture, no UM171

SMILES: CO[C@H]1O[C@@H]2O[C@@]3(C)CC[C@H]4[C@H](C)CC[C@@H]([C@H]1C)[C@@]24OO3 [Example 1-30, artemether, reference compound]
- Donor chimerism ([1]; 1 month after transplantation): 0.041 ± 0.022%
- Donor chimerism ([1]; 2 months after transplantation): 0.605 ± 0.95%
- Donor chimerism ([1]; 3 months after transplantation): 2.108 ± 2.479%
- Viable cell count [2]: 95954 cell
- CD34-positive cell count [3, 5]: 36 cell
- Viable cell count [3, 5]: 301 cell
- CD34-positive cell count [3, 6]: 102 cell
- Viable cell count [3, 6]: 765 cell
- CD34-positive cell count [3, 7]: 43 cell
- Viable cell count [3, 7]: 323 cell
- CD34-positive cell count [3, 8]: 56 cell
- Viable cell count [3, 8]: 216 cell
- CD34-positive cell count [3, 9]: 93 cell
- Viable cell count [3, 9]: 376 cell
- CD34-positive cell count [3, 10]: 9 cell
- Viable cell count [3, 10]: 240 cell
- CD34-positive cell count [3, 11]: 0 cell
- Viable cell count [3, 11]: 31 cell
- CD34-positive cell count [3, 12]: 59 cell
- Viable cell count [3, 12]: 484 cell
- CD34-positive cell count [3, 13]: 88 cell
- Viable cell count [3, 13]: 921 cell
- CD34-positive cell count [3, 14]: 57 cell
- Viable cell count [3, 14]: 498 cell
- CD34-positive cell count [3, 15]: 23 cell
- Viable cell count [3, 15]: 298 cell
- CD34-positive cell count [3, 16]: 45 cell
- Viable cell count [3, 16]: 555 cell
- CD34-positive cell count [3, 17]: 61 cell
- Viable cell count [3, 17]: 550 cell
- CD34-positive cell count [3, 18]: 35 cell
- Viable cell count [3, 18]: 479 cell
- CD34-positive cell count [3, 19]: 26 cell
- Viable cell count [3, 19]: 380 cell
- CD34-positive cell count [3, 20]: 27 cell
- Viable cell count [3, 20]: 250 cell
- Colony count (colony) after culture (CFU-GEMM) [4, 5]: 40.1 colony
- Colony count (colony) after culture (CFU-GEMM) [4, 6]: 204.0 colony
- Colony count (colony) after culture (CFU-GEMM) [4, 7]: 53.8 colony
- Colony count (colony) after culture (CFU-GEMM) [4, 8]: 46.8 colony
- Colony count (colony) after culture (CFU-GEMM) [4, 9]: 94.0 colony
- Colony count (colony) after culture (CFU-GEMM) [4, 10]: 40.0 colony
- Colony count (colony) after culture (CFU-GEMM) [4, 11]: 0.0 colony
- Colony count (colony) after culture (CFU-GEMM) ([4]; compound 0.001 μM, 1 week culture then 2 weeks MethoCult H4435, no UM171): 40.3 colony
- Colony count (colony) after culture (CFU-GEMM) ([4]; compound 0.003 μM, 1 week culture then 2 weeks MethoCult H4435, no UM171): 61.4 colony
- Colony count (colony) after culture (CFU-GEMM) ([4]; compound 0.01 μM, 1 week culture then 2 weeks MethoCult H4435, no UM171): 33.2 colony
- Colony count (colony) after culture (CFU-GEMM) ([4]; compound 0.03 μM, 1 week culture then 2 weeks MethoCult H4435, no UM171): 34.8 colony
- Colony count (colony) after culture (CFU-GEMM) ([4]; compound 0.1 μM, 1 week culture then 2 weeks MethoCult H4435, no UM171): 37.0 colony
- Colony count (colony) after culture (CFU-GEMM) ([4]; compound 0.3 μM, 1 week culture then 2 weeks MethoCult H4435, no UM171): 36.7 colony
- Colony count (colony) after culture (CFU-GEMM) ([4]; compound 1 μM, 1 week culture then 2 weeks MethoCult H4435, no UM171): 63.9 colony
- Colony count (colony) after culture (CFU-GEMM) ([4]; compound 3 μM, 1 week culture then 2 weeks MethoCult H4435, no UM171): 31.7 colony
- Colony count (colony) after culture (CFU-GEMM) ([4]; compound 10 μM, 1 week culture then 2 weeks MethoCult H4435, no UM171): 0.0 colony
